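Assay format: 96-well plates, 48-hour exposure. TGI is the concentration that stops growth completely.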
Key:
Assay in all cases: DTP human tumour cell line panel, 48 h
LOX IMVI melanoma = test system: LOX IMVI melanoma
A498 renal = test system: A498 renal
OVCAR-3 ovarian = test system: OVCAR-3 ovarian
SR leukemia = test system: SR leukemia
SN12C renal = test system: SN12C renal
NCI-H460 lung = test system: NCI-H460 lung
IGROV1 ovarian = test system: IGROV1 ovarian
ACHN renal = test system: ACHN renal
M14 melanoma = test system: M14 melanoma
SF-268 CNS = test system: SF-268 CNS
HT29 colon = test system: HT29 colon
OVCAR-8 ovarian = test system: OVCAR-8 ovarian
HCC-2998 colon = test system: HCC-2998 colon
SW-620 colon = test system: SW-620 colon
NCI-H522 lung = test system: NCI-H522 lung
SF-295 CNS = test system: SF-295 CNS
T-47D breast = test system: T-47D breast
HS 578T breast = test system: HS 578T breast
HOP-62 NSCLC = test system: HOP-62 NSCLC
CCRF-CEM leukemia = test system: CCRF-CEM leukemia
OVCAR-5 ovarian = test system: OVCAR-5 ovarian
SNB-75 CNS = test system: SNB-75 CNS
COLO 205 colon = test system: COLO 205 colon
PC-3 prostate = test system: PC-3 prostate
786-0 renal = test system: 786-0 renal
SK-MEL-2 melanoma = test system: SK-MEL-2 melanoma
MCF7 breast = test system: MCF7 breast
A549 NSCLC = test system: A549 NSCLC
BT-549 breast = test system: BT-549 breast
TK-10 renal = test system: TK-10 renal
SK-OV-3 ovarian = test system: SK-OV-3 ovarian
EKVX NSCLC = test system: EKVX NSCLC
U251 CNS = test system: U251 CNS
UACC-257 melanoma = test system: UACC-257 melanoma
MOLT-4 leukemia = test system: MOLT-4 leukemia
UO-31 renal = test system: UO-31 renal
MALME-3M melanoma = test system: MALME-3M melanoma
MDA-MB-231 breast = test system: MDA-MB-231 breast
HL-60(TB) leukemia = test system: HL-60(TB) leukemia
HOP-92 NSCLC = test system: HOP-92 NSCLC
UACC-62 melanoma = test system: UACC-62 melanoma
MDA-MB-435 = test system: MDA-MB-435
MDA-N = test system: MDA-N
SNB-19 CNS = test system: SNB-19 CNS
HCT-116 colon = test system: HCT-116 colon
OVCAR-4 ovarian = test system: OVCAR-4 ovarian
SK-MEL-28 melanoma = test system: SK-MEL-28 melanoma
SF-539 CNS = test system: SF-539 CNS
NCI-H23 lung = test system: NCI-H23 lung
DU-145 prostate = test system: DU-145 prostate
K-562 leukemia = test system: K-562 leukemia
HCT-15 colon = test system: HCT-15 colon
RXF 393 renal = test system: RXF 393 renal
SK-MEL-5 melanoma = test system: SK-MEL-5 melanoma
KM12 colon = test system: KM12 colon
NCI/ADR-RES ovarian = test system: NCI/ADR-RES ovarian
RPMI-8226 leukemia = test system: RPMI-8226 leukemia
NCI-H226 lung = test system: NCI-H226 lung
CAKI-1 renal = test system: CAKI-1 renal

`COc1cc(/C=N/NC2=NCCCCN2)ccc1O` was tested, and the TGI (LOX IMVI melanoma) was over 100 µM, the TGI (A498 renal) was over 100 µM and the TGI (OVCAR-3 ovarian) was over 100 µM. The TGI (SR leukemia) was over 100 µM, the TGI (SN12C renal) was over 100 µM and the TGI (NCI-H460 lung) was over 100 µM. The TGI (IGROV1 ovarian) was over 100 µM, the TGI (ACHN renal) was over 100 µM and the TGI (M14 melanoma) was over 100 µM. For the same compound, the TGI (SF-268 CNS) was over 100 µM, the TGI (HT29 colon) was over 100 µM and the TGI (OVCAR-8 ovarian) was over 100 µM. The TGI (HCC-2998 colon) was over 100 µM, the TGI (SW-620 colon) was over 100 µM and the TGI (NCI-H522 lung) was over 100 µM. It also gave a TGI (SF-295 CNS) of over 100 µM, a TGI (T-47D breast) of over 100 µM and a TGI (HS 578T breast) of over 100 µM. It also gave a TGI (HOP-62 NSCLC) of over 100 µM, a TGI (CCRF-CEM leukemia) of over 100 µM and a TGI (OVCAR-5 ovarian) of over 100 µM. The TGI (SNB-75 CNS) was over 100 µM, the TGI (COLO 205 colon) was over 100 µM and the TGI (PC-3 prostate) was over 100 µM. The TGI (786-0 renal) was over 100 µM, the TGI (SK-MEL-2 melanoma) was over 100 µM and the TGI (MCF7 breast) was over 100 µM. It also gave a TGI (A549 NSCLC) of over 100 µM, a TGI (BT-549 breast) of over 100 µM and a TGI (TK-10 renal) of over 100 µM. It also gave a TGI (SK-OV-3 ovarian) of over 100 µM, a TGI (EKVX NSCLC) of over 100 µM and a TGI (U251 CNS) of over 100 µM. It also gave a TGI (UACC-257 melanoma) of over 100 µM, a TGI (MOLT-4 leukemia) of over 100 µM and a TGI (UO-31 renal) of over 100 µM. The TGI (MALME-3M melanoma) was over 100 µM, the TGI (MDA-MB-231 breast) was over 100 µM and the TGI (HL-60(TB) leukemia) was over 100 µM. It also gave a TGI (HOP-92 NSCLC) of over 100 µM, a TGI (UACC-62 melanoma) of over 100 µM and a TGI (MDA-MB-435) of over 100 µM. The TGI (MDA-N) was over 100 µM, the TGI (SNB-19 CNS) was over 100 µM and the TGI (HCT-116 colon) was over 100 µM. For the same compound, the TGI (OVCAR-4 ovarian) was over 100 µM, the TGI (SK-MEL-28 melanoma) was over 100 µM and the TGI (SF-539 CNS) was over 100 µM. The TGI (NCI-H23 lung) was over 100 µM, the TGI (DU-145 prostate) was over 100 µM and the TGI (K-562 leukemia) was over 100 µM. It also gave a TGI (HCT-15 colon) of over 100 µM, a TGI (RXF 393 renal) of over 100 µM and a TGI (SK-MEL-5 melanoma) of over 100 µM. It also gave a TGI (KM12 colon) of over 100 µM, a TGI (NCI/ADR-RES ovarian) of over 100 µM and a TGI (RPMI-8226 leukemia) of over 100 µM. For the same compound, the TGI (NCI-H226 lung) was over 100 µM.
For `CC1(C)C2CCC(O)(C2)C1N` (stereo unspecified), the TGI (LOX IMVI melanoma) was over 100 µM, the TGI (A498 renal) was over 100 µM and the TGI (OVCAR-3 ovarian) was over 100 µM. For the same compound, the TGI (SR leukemia) was over 100 µM, the TGI (SN12C renal) was over 100 µM and the TGI (NCI-H460 lung) was over 100 µM. It also gave a TGI (IGROV1 ovarian) of over 100 µM, a TGI (ACHN renal) of over 100 µM and a TGI (M14 melanoma) of over 100 µM. It also gave a TGI (SF-268 CNS) of over 100 µM, a TGI (HT29 colon) of over 100 µM and a TGI (OVCAR-8 ovarian) of over 100 µM. The TGI (HCC-2998 colon) was over 100 µM, the TGI (SW-620 colon) was over 100 µM and the TGI (SF-295 CNS) was over 100 µM. It also gave a TGI (T-47D breast) of over 100 µM, a TGI (HS 578T breast) of over 100 µM and a TGI (HOP-62 NSCLC) of over 100 µM. For the same compound, the TGI (CCRF-CEM leukemia) was over 100 µM, the TGI (OVCAR-5 ovarian) was over 100 µM and the TGI (SNB-75 CNS) was over 100 µM. It also gave a TGI (COLO 205 colon) of over 100 µM, a TGI (PC-3 prostate) of over 100 µM and a TGI (786-0 renal) of over 100 µM. The TGI (SK-MEL-2 melanoma) was over 100 µM, the TGI (MCF7 breast) was over 100 µM and the TGI (A549 NSCLC) was over 100 µM. For the same compound, the TGI (BT-549 breast) was over 100 µM, the TGI (TK-10 renal) was over 100 µM and the TGI (SK-OV-3 ovarian) was over 100 µM. For the same compound, the TGI (EKVX NSCLC) was over 100 µM, the TGI (CAKI-1 renal) was over 100 µM and the TGI (U251 CNS) was over 100 µM. It also gave a TGI (UACC-257 melanoma) of over 100 µM, a TGI (MOLT-4 leukemia) of over 100 µM and a TGI (UO-31 renal) of over 100 µM. The TGI (MALME-3M melanoma) was over 100 µM, the TGI (MDA-MB-231 breast) was over 100 µM and the TGI (HL-60(TB) leukemia) was over 31.6 µM. For the same compound, the TGI (HOP-92 NSCLC) was over 100 µM, the TGI (UACC-62 melanoma) was over 100 µM and the TGI (MDA-MB-435) was over 100 µM. For the same compound, the TGI (MDA-N) was over 100 µM, the TGI (SNB-19 CNS) was over 100 µM and the TGI (HCT-116 colon) was over 100 µM. It also gave a TGI (OVCAR-4 ovarian) of over 100 µM, a TGI (SK-MEL-28 melanoma) of over 100 µM and a TGI (SF-539 CNS) of over 100 µM. It also gave a TGI (NCI-H23 lung) of over 100 µM, a TGI (DU-145 prostate) of over 100 µM and a TGI (K-562 leukemia) of over 100 µM. It also gave a TGI (HCT-15 colon) of over 100 µM, a TGI (RXF 393 renal) of over 100 µM and a TGI (SK-MEL-5 melanoma) of over 100 µM. For the same compound, the TGI (KM12 colon) was over 100 µM, the TGI (NCI/ADR-RES ovarian) was over 100 µM and the TGI (RPMI-8226 leukemia) was over 100 µM. For the same compound, the TGI (NCI-H226 lung) was over 100 µM.
